Columns and labels:
plasma cholesterol = test: Plasma cholesterol level in Tg53 transgenic mice after treatment in feed; format: in vivo, mouse
Procedure: The compound A in powdered form was mixed at the dose of 0.01% (weight/weight) with standard feed in powdered form.
Transgenic mice Tg53 (overexpressing the human APP transgene carrying the “Swedish” and “London” mutations, (2002 Wirths, et al. (2002). Brain Pathol. 12, 275-286), 8-10 week old females, were treated for 3 weeks. The mice were housed in an individual cage with drink being available ad libitum. Every day, 6 grams of powdered food (supplemented or otherwise with compound A) were distributed in each cage. Two groups of 11 to 12 animals (control regimen or regimen supplemented with compound A) were used. At the end of the treatment, a blood sample was collected and the plasma cholesterol level was determined using an automated device for biological analysis.

Aβ peptide = test: Cerebral Aβ peptide levels (soluble and total brain fractions) in Tg53 transgenic mice, immunoelectrochemoluminescence assay; format: in vivo, mouse; conditions: for levels of total Aβ / levels of total Aβ reduced compared with control group: Test 3; for levels of total Aβ: control 108.1±8.5

## CCCC[C@]1(CC)CS(=O)(=O)c2ccc(N(C)C)cc2[C@@H](c2cccc(NC(=O)CCCCNC[C@H](O)[C@@H](O)[C@H](O)[C@H](O)CO)c2)[C@H]1O [compound A]
Plasma cholesterol; Test 1, Tg53 females 8-10 weeks old, 0.01% (w/w) in feed, 3 weeks, n=11, control 0.72±0.023
  plasma cholesterol level: 0.62 ± 0.030 g/L
Plasma cholesterol; Test 1, Tg53 females 8-10 weeks old, 0.01% (w/w) in feed, 3 weeks, p=0.0154
  plasma cholesterol level reduced compared to control regimen group: 14%
Plasma cholesterol; Test 2, female transgenic mice 15.5 weeks old at end of treatment, 0.01% in feed, n=8, control 0.85±0.03
  plasma cholesterol level: 0.70 ± 0.03 g/L
Plasma cholesterol; Test 2, female transgenic mice 15.5 weeks old at end of treatment, 0.01% in feed, p=0.0037
  plasma cholesterol level reduced compared with control regime group: 18%
Aβ peptide; Test 1, Tg53 females 8-10 weeks old, 0.01% (w/w) in feed, 3 weeks, p=0.0103
  decrease in the cerebral level of soluble Aβ peptide compared to control regimen group: 18%
Aβ peptide; Test 2, female transgenic mice 15.5 weeks old at end of treatment, 0.01% in feed, n=8, control 364.2±40.9
  cerebral levels of total peptide Aβ: 196.3±17.8 ng/g of tissue
Aβ peptide; Test 2, female transgenic mice 15.5 weeks old at end of treatment, 0.01% in feed, p=0.0001
  reduction in the cerebral level of soluble Aβ peptide compared with control regime group: 40%
Aβ peptide; Test 2, female transgenic mice 15.5 weeks old at end of treatment, 0.01% in feed, p=0.0017
  cerebral levels of total peptide Aβ reduced compared with control regime group: 46%
Aβ peptide; 0.0001% in feed, n=8
  levels of total Aβ: 85.4±4.1 ng/g of tissue
Aβ peptide; 0.0001% in feed, p=0.04
  levels of total Aβ reduced compared with control group: 21%
Aβ peptide; 0.001% in feed, n=10
  levels of total Aβ: 86.5±5.9 ng/g of tissue
Aβ peptide; 0.001% in feed, p=0.050
  levels of total Aβ reduced compared with control group: 20%
Aβ peptide; 0.01% in feed, n=10
  levels of total Aβ: 90.5±6.9 ng/g of tissue
Aβ peptide; 0.01% in feed, p=0.123, ns
  levels of total Aβ reduced compared with control group: 16%

— US20040138145A1, “Application of intestinal biliary acid reuptake inhibitors for the prevention and treatment of alzheimer's disease” (Aventis Pharma S.A., priority 2002, published 2004)
